Like-named read-outs stand apart in the source and are kept apart here.
Assays:
kochia [1] = test: Test A preemergence; assay type: in vivo, Bassia scoparia; details: Bassia scoparia, pre-emergence, 240 h, read-out: Plant response rating, Kochia; for pest or weed control at 125 g/ha: 125 g ai/ha, visual injury after 10 days, 0 to 100 scale, 0 is no effect, 100 is complete control; for pest or weed control at 500 g/ha: 500 g ai/ha, 0 to 100 scale (0 no effect, 100 complete control), 10 days
How it was run: (§1)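 Weeds and crops in loam–sand blend were sprayed preemergence onto soil or postemergence at 2–10 cm (one- to two-leaf stage). Test chemicals were in a non-phytotoxic solvent with surfactant. After 10 days in the greenhouse, injury was rated visually against untreated controls on a 0 (no effect) to 100 (complete control) scale.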

wheat = test: Test A preemergence; assay type: in vivo, Triticum aestivum; details: Triticum aestivum, pre-emergence, 240 h, read-out: Plant response rating, Wheat; for plant injury at 125 g/ha: 125 g ai/ha, visual injury after 10 days, 0 to 100 scale, 0 is no effect, 100 is complete control; for plant injury at 500 g/ha: 500 g ai/ha, 0 to 100 scale (0 no effect, 100 complete control), 10 days
How it was run: as §1

kochia [2] = test: Test A postemergence; assay type: in vivo, Bassia scoparia; details: Bassia scoparia, post-emergence, 240 h; for pest or weed control at 125 g/ha: 125 g ai/ha; for pest or weed control at 500 g/ha: 500 g ai/ha
How it was run: as §1

horseweed = test: Test A postemergence; assay type: in vivo, Erigeron canadensis; details: Erigeron canadensis, post-emergence, 240 h, postemergence, 10 days, 0 to 100 scale (0 no effect, 100 complete control); for pest or weed control at 125 g/ha: 125 g ai/ha, read-out: Horseweed plant response rating; for pest or weed control at 500 g/ha: 500 g ai/ha, visual injury, read-out: Plant response rating, Horseweed
How it was run: as §1

corn = test: Test A preemergence; assay type: in vivo, Zea mays; details: Zea mays, pre-emergence, 240 h; for Corn plant response rating (crop injury, 0 = no effect, 100 = complete kill) at 125 g/ha: 125 g ai/ha, visual injury after 10 days, 0 to 100 scale, 0 is no effect, 100 is complete control; for Corn plant response rating (crop injury, 0 = no effect, 100 = complete kill) at 500 g/ha: 500 g ai/ha, 0 to 100 scale (0 no effect, 100 complete control), 10 days
How it was run: as §1

sedge, umbrella = test: Test B flooded paddy test; assay type: in vivo, Cyperus difformis; details: Cyperus difformis, 312 h; 250 g ai/ha, Flood, 13 days, 0 to 100 scale (0 no effect, 100 complete control); read-out: Plant response rating, Sedge, Umbrella
How it was run: (§2)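 2-leaf stage; pots flooded 3 cm over soil; compound dosed into paddy water; depth kept constant. Greenhouse, 13 d. Visual rating vs controls, 0 (no effect)–100 (complete control). Dash = no result.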

rice = test: Test B flooded paddy test; assay type: in vivo, Oryza sativa; details: Oryza sativa, 312 h; 250 g ai/ha, Flood, 13 days, 0 to 100 scale (0 no effect, 100 complete control); read-out: Plant response rating, Rice
How it was run: as §2

goosegrass = test: Test A preemergence; assay type: in vivo, Eleusine indica; details: Eleusine indica, pre-emergence, 240 h, read-out: Plant response rating, Goosegrass; for pest or weed control at 125 g/ha: 125 g ai/ha, visual injury after 10 days, 0 to 100 scale, 0 is no effect, 100 is complete control; for pest or weed control at 500 g/ha: 500 g ai/ha, 0 to 100 scale (0 no effect, 100 complete control), 10 days
How it was run: as §1

foxtail, giant = test: Test A preemergence; assay type: in vivo, Setaria faberi; details: Setaria faberi, pre-emergence, 240 h, read-out: Plant response rating, Foxtail, Giant; for pest or weed control at 125 g/ha: 125 g ai/ha, visual injury after 10 days, 0 to 100 scale, 0 is no effect, 100 is complete control; for pest or weed control at 500 g/ha: 500 g ai/ha, 0 to 100 scale (0 no effect, 100 complete control), 10 days
How it was run: as §1

soybean = test: Test A postemergence; assay type: in vivo, Glycine max; details: Glycine max, post-emergence, 240 h; for plant injury at 125 g/ha: 125 g ai/ha; for plant injury at 500 g/ha: 500 g ai/ha
How it was run: as §1

ryegrass, Italian = test: Test A postemergence; assay type: in vivo, Lolium multiflorum; details: Lolium multiflorum, post-emergence, 240 h; for pest or weed control at 125 g/ha: 125 g ai/ha; for pest or weed control at 500 g/ha: 500 g ai/ha
How it was run: as §1

oat, wild = test: Test A preemergence; assay type: in vivo, Avena fatua; details: Avena fatua, pre-emergence, 240 h, read-out: Plant response rating, Oat, Wild; for pest or weed control at 125 g/ha: 125 g ai/ha, visual injury after 10 days, 0 to 100 scale, 0 is no effect, 100 is complete control; for pest or weed control at 500 g/ha: 500 g ai/ha, 0 to 100 scale (0 no effect, 100 complete control), 10 days
How it was run: as §1

barnyardgrass = test: Test B flooded paddy test; assay type: in vivo, Echinochloa crus-galli; details: Echinochloa crus-galli, 312 h, 250 g ai/ha, Flood, 13 days, 0 to 100 scale (0 no effect, 100 complete control); read-out: Plant response rating, Barnyardgrass
How it was run: as §2

galium = test: Test A postemergence; assay type: in vivo, Galium aparine; details: Galium, post-emergence, 240 h, read-out: Plant response rating, Galium
How it was run: as §1

[3] = postemergence, 10 days, 0 to 100 scale (0 no effect, 100 complete control), read-out: Kochia plant response rating
[4] = postemergence, 10 days, visual injury, 0 to 100 scale (0 no effect, 100 complete control), read-out: Plant response rating, Kochia
[5] = postemergence, 10 days, 0 to 100 scale (0 no effect, 100 complete control), read-out: Soybean plant response rating
[6] = postemergence, 10 days, visual injury, 0 to 100 scale (0 no effect, 100 complete control), read-out: Plant response rating, Soybean
[7] = postemergence, 10 days, 0 to 100 scale (0 no effect, 100 complete control), read-out: Ryegrass, Italian plant response rating
[8] = postemergence, 10 days, visual injury, 0 to 100 scale (0 no effect, 100 complete control), read-out: Plant response rating, Ryegrass, Italian

## CCc1ncn(-c2ccc(OC)c(C(=O)N3C[C@H](C)Oc4c(Cl)cccc43)c2)n1 [Compound 88, [(2S)-8-Chloro-2,3-dihydro-2-methyl-4H-1,4-benzoxazin-4-yl][5-(3-ethyl-1H-1,2,4-triazol-1-yl)-2-methoxyphenyl]methanone]
Kochia [1]
  pest or weed control at 125 g/ha: 90%
  pest or weed control at 500 g/ha: 100%
wheat
  plant injury at 125 g/ha: 20%
  plant injury at 500 g/ha: 40%
Kochia [2]; [3]
  pest or weed control at 125 g/ha: 90%
Kochia [2]; [4]
  pest or weed control at 500 g/ha: 100%
horseweed
  pest or weed control at 125 g/ha: 40%
  pest or weed control at 500 g/ha: 90%
corn
  Corn plant response rating (crop injury, 0 = no effect, 100 = complete kill) at 125 g/ha: 40%
  Corn plant response rating (crop injury, 0 = no effect, 100 = complete kill) at 500 g/ha: 40%
sedge, umbrella
  pest or weed control at 250 g/ha: 100%
rice
  plant injury at 250 g/ha: 10%
goosegrass
  pest or weed control at 125 g/ha: 100%
  pest or weed control at 500 g/ha: 100%
foxtail, giant
  pest or weed control at 125 g/ha: 100%
  pest or weed control at 500 g/ha: 100%
soybean; [5]
  plant injury at 125 g/ha: 100%
soybean; [6]
  plant injury at 500 g/ha: 100%
ryegrass, Italian; [7]
  pest or weed control at 125 g/ha: 80%
ryegrass, Italian; [8]
  pest or weed control at 500 g/ha: 100%
oat, wild
  pest or weed control at 125 g/ha: 90%
  pest or weed control at 500 g/ha: 90%
barnyardgrass
  pest or weed control at 250 g/ha: 45%

## COc1ccc(-n2cnc(C(C)C)n2)cc1C(=O)N1C[C@H](C)Oc2c(Cl)cccc21 [Compound 84, [(2S)-8-chloro-2-methyl-2,3-dihydro-1,4-benzoxazin-4-yl]-[5-(3-isopropyl-1,2,4-triazol-1-yl)-2-methoxy-phenyl]methanone]
Kochia [1]
  pest or weed control at 125 g/ha: 80%
  pest or weed control at 500 g/ha: 100%
wheat
  plant injury at 125 g/ha: 60%
  plant injury at 500 g/ha: 90%
Kochia [2]; [3]
  pest or weed control at 125 g/ha: 90%
Kochia [2]; [4]
  pest or weed control at 500 g/ha: 90%
horseweed
  pest or weed control at 125 g/ha: 40%
  pest or weed control at 500 g/ha: 50%
corn
  Corn plant response rating (crop injury, 0 = no effect, 100 = complete kill) at 125 g/ha: 20%
  Corn plant response rating (crop injury, 0 = no effect, 100 = complete kill) at 500 g/ha: 20%
sedge, umbrella
  pest or weed control at 250 g/ha: 100%
rice
  plant injury at 250 g/ha: 0%
goosegrass
  pest or weed control at 125 g/ha: 100%
  pest or weed control at 500 g/ha: 100%
foxtail, giant
  pest or weed control at 125 g/ha: 100%
  pest or weed control at 500 g/ha: 100%
soybean; [5]
  plant injury at 125 g/ha: 100%
soybean; [6]
  plant injury at 500 g/ha: 100%
ryegrass, Italian; [7]
  pest or weed control at 125 g/ha: 100%
ryegrass, Italian; [8]
  pest or weed control at 500 g/ha: 100%
oat, wild
  pest or weed control at 125 g/ha: 90%
  pest or weed control at 500 g/ha: 90%
barnyardgrass
  pest or weed control at 250 g/ha: 65%

## Cc1cccc2c1O[C@@H](C)CN2C(=O)c1cccc(-n2cnc(C3CCCC3)n2)c1 [Compound 80, [3-(3-Cyclopentyl-1H-1,2,4-triazol-1-yl)phenyl][(2S)-2,3-dihydro-2,8-dimethyl-4H-1,4-benzoxazin-4-yl]methanone]
Kochia [1]
  pest or weed control at 125 g/ha: 10%
  pest or weed control at 500 g/ha: 80%
wheat
  plant injury at 125 g/ha: 0%
  plant injury at 500 g/ha: 10%
Kochia [2]; [3]
  pest or weed control at 125 g/ha: 40%
Kochia [2]; [4]
  pest or weed control at 500 g/ha: 70%
horseweed
  pest or weed control at 125 g/ha: 0%
  pest or weed control at 500 g/ha: 0%
corn
  Corn plant response rating (crop injury, 0 = no effect, 100 = complete kill) at 125 g/ha: 0%
  Corn plant response rating (crop injury, 0 = no effect, 100 = complete kill) at 500 g/ha: 20%
sedge, umbrella
  pest or weed control at 250 g/ha: 0%
rice
  plant injury at 250 g/ha: 0%
goosegrass
  pest or weed control at 125 g/ha: 90%
  pest or weed control at 500 g/ha: 100%
foxtail, giant
  pest or weed control at 125 g/ha: 20%
  pest or weed control at 500 g/ha: 80%
soybean; [5]
  plant injury at 125 g/ha: 70%
soybean; [6]
  plant injury at 500 g/ha: 100%
ryegrass, Italian; [7]
  pest or weed control at 125 g/ha: 20%
ryegrass, Italian; [8]
  pest or weed control at 500 g/ha: 70%
oat, wild
  pest or weed control at 125 g/ha: 0%
  pest or weed control at 500 g/ha: 10%
barnyardgrass
  pest or weed control at 250 g/ha: 0%

## Cc1cccc2c1O[C@@H](C)CN2C(=O)c1cccc(-n2cnc(Br)n2)c1 [Compound 61, [3-(3-Bromo-1H-1,2,4-triazol-1-yl)phenyl][(2S)-2,3-dihydro-2,8-dimethyl-4H-1,4-benzoxazin-4-yl]methanone]
Kochia [1]
  pest or weed control at 125 g/ha: 20%
  pest or weed control at 500 g/ha: 60%
wheat
  plant injury at 125 g/ha: 0%
  plant injury at 500 g/ha: 20%
Kochia [2]; [4]
  pest or weed control at 125 g/ha: 20%
Kochia [2]; Postemergence, 0 to 100 scale, read-out: Plant response rating, Kochia
  pest or weed control at 500 g/ha: 70%
corn
  Corn plant response rating (crop injury, 0 = no effect, 100 = complete kill) at 125 g/ha: 0%
  Corn plant response rating (crop injury, 0 = no effect, 100 = complete kill) at 500 g/ha: 0%
sedge, umbrella
  pest or weed control at 250 g/ha: 45%
rice
  plant injury at 250 g/ha: 0%
galium; 125 g ai/ha, postemergence, 10 days, visual injury, 0 to 100 scale (0 no effect, 100 complete control)
  pest or weed control at 125 g/ha: 70%
galium; 500 g ai/ha, Postemergence, 0 to 100 scale
  pest or weed control at 500 g/ha: 100%
goosegrass
  pest or weed control at 125 g/ha: 90%
  pest or weed control at 500 g/ha: 90%
foxtail, giant
  pest or weed control at 125 g/ha: 90%
  pest or weed control at 500 g/ha: 90%
soybean; [6]
  plant injury at 125 g/ha: 100%
soybean; Postemergence, 0 to 100 scale, read-out: Plant response rating, Soybean
  plant injury at 500 g/ha: 100%
ryegrass, Italian; [8]
  pest or weed control at 125 g/ha: 40%
ryegrass, Italian; Postemergence, 0 to 100 scale, read-out: Plant response rating, Ryegrass, Italian
  pest or weed control at 500 g/ha: 40%
oat, wild
  pest or weed control at 125 g/ha: 30%
  pest or weed control at 500 g/ha: 30%
barnyardgrass
  pest or weed control at 250 g/ha: 0%
